Laboratory results taken from US10787413B2, “Derivatives of curcuminoids and use thereof as an anticancer agent” (CHINA MEDICAL UNIVERSITY, priority 2016, dated 2020).
Where two headings read alike, the source gives them in different places.

What was measured:
[1] = test system: PC3 prostate cancer cell; assay: MTT cell viability assay, PC3 prostate cancer cell; type: cell-based
Method: (§1) Cell viability was evaluated by measuring the reduction in MTT to yield blue formazan. Cells were cultured in 96-well plates, allowed to attach overnight, and then treated with compounds. After treatment, MTT solution (1 mg/ml) was added to each well, and plates were incubated for another 4 h. Medium were removed, blue formazan was dissolved in DMSO, and the absorbance was read at 570 nm^20.

[2] = test system: HCT-116 colon cancer cell; assay: MTT cell viability assay, HCT-116 colon cancer cell; type: cell-based; details: Homo sapiens
Method: as §1

[3] = test system: MDA-MB-231 breast cancer cell; assay: MTT cell viability assay, MDA-MB-231 breast cancer cell; type: cell-based, human; details: for IC50: Homo sapiens; for times more potent than curcumin (IC50): MDA-MB-231, 72 h treatment, curcumin IC50 16.23 μM
Method: Cell viability was evaluated by measuring the reduction in MTT to yield blue formazan. Cells were cultured in 96-well plates, allowed to attach overnight, and then treated with compounds. After treatment, MTT solution (1 mg/ml) was added to each well, and plates were incubated for another 4 h.

[4] = Preliminary acute toxicity assay; details: oral 500 mg/kg/day for 5 consecutive days, 21 days observation, vs untreated control
Method: Normal mice were treated with 21a or 35a by oral route at 500 mg/kg/day for 5 consecutive days, following by 21 days of post-treatment observation. […] Detailed data for their toxicology and safety pharmacology studies will be carried out in the near future.
Female nu/nu mice (5 weeks old) were P.O. with vehicle (propylene glycol, 0.1 ml) or high dose of 21a (250 and 500 mg/kg) and 35a (500 mg/kg) for 5 days followed by observation of behavior and lethargy for 21 days.

[5] = test system: Doxorubicin-resistant MDA-MB-231; assay: Cell viability, Doxorubicin-resistant MDA-MB-231; type: cell-based
Method: as §1

[6] = test system: MDA-MB-231 Xenograft; details: Doxorubicin alone, IP 1 mg/kg/day
Method: Female nu/nu mice (5 weeks old) were from National Laboratory Animal Center, Taipei, Taiwan. […] MDA-MB-231 breast cancer cells (5×10^6 cells per mouse) were suspended in 0.1 ml of Matrigel solution (50% (v/v) Matrigel in PBS) and inoculated into the mammary fat pads of the mice. […] Compounds was administered P.O. once every day for 32 days. Tumor size and mouse body weight were measured once every 4 days, and tumor volume (mm3) was calculated using the equation: length×(width)^2×0.5. At the end of experiments, mice were sacrificed and tumor nodules were dissected and weighed.

[7] = PC-3, treated 24 hours, read-out: IC50 24 hours
[8] = PC-3, treated 48 hours, read-out: IC50 48 hours
[9] = PC-3, treated 72 hours, read-out: IC50 72 hours
[10] = HCT-116, treated 24 hours, read-out: IC50 24 hours
[11] = HCT-116, treated 48 hours, read-out: IC50 48 hours
[12] = HCT-116, treated 72 hours, read-out: IC50 72 hours
[13] = MDA-MB-231, 24 h, MDA-MB-231, treated 24 hours, read-out: IC50 24 hours
[14] = MDA-MB-231, 48 h, MDA-MB-231, treated 48 hours, read-out: IC50 48 hours
[15] = MDA-MB-231, 72 h, MDA-MB-231, treated 72 hours, read-out: IC50 72 hours

| IC50 [1, 7] [µM] | IC50 [1, 8] [µM] | IC50 [1, 9] [µM] | IC50 [2, 10] [µM] | IC50 [2, 11] [µM] | IC50 [2, 12] [µM] | IC50 [3, 13] [µM] | IC50 [3, 14] [µM] | IC50 [3, 15] [µM] | melting point [°C] | times more potent than curcumin (IC50) [3] | SMILES | body weight and behavior change [4] | times greater inhibitory activity than curcumin ([5]; Doxorubicin-resistant MDA-MB-231) [times] | IC50 ([5]; Homo sapiens, MDA-MB-231, 24 h, Doxorubicin-resistant MDA-MB-231, treated for 24 h) [µM] | reduction of MDA-MB-231 tumor weight compared with control group [6] [%] |
| --- | --- | --- | --- | --- | --- | --- | --- | --- | --- | --- | --- | --- | --- | --- | --- |
| 24.6 ± 0.83 | 26.8 ± 0.74 | 17.4 ± 1.37 | 35.6 ± 2.5 | 20.4 ± 0.61 | 15.5 ± 0.16 | 13.2 ± 1.2 | 9.97 ± 1.12 | 5.94 | 104 to 105 |  | COc1cc(/C=C/C(O)=C/C(=O)/C=C/c2ccc(OC(=O)C(C)(CO)CO)c(OC)c2)ccc1O [Compound 21b, 4-((1E,4Z,6E)-5-Hydroxy-7-(4-hydroxy-3-methoxyphenyl)-3-oxohepta-1,4,6-trien-1-yl)-2 methoxyphenyl 3-hydroxy-2-(hydroxymethyl)-2-methylpropanoate] |  |  |  |  |
| 13.8 ± 1.48 | 14.4 ± 0.82 | 12.5 ± 0.1 | 21.2 ± 2.48 | 12.4 ± 0.16 | 11.4 ± 1.05 | 14.6 ± 2.42 | 7.55 ± 0.86 | 4.66 | 82 to 83 |  | CCC(CO)(CO)C(=O)Oc1ccc(/C=C/C(=O)/C=C(O)/C=C/c2ccc(O)c(OC)c2)cc1OC [Compound 22b, 4-((1E,4Z,6E)-5-Hydroxy-7-(4-hydroxy-3-methoxyphenyl)-3-oxohepta-1,4,6-trien-1-yl)-2-methoxyphenyl 2,2-bis(hydroxymethyl)butanoate] |  |  |  |  |
| 8.46 ± 0.64 | 8.77 ± 0.8 | 5.59 ± 0.2 | 57.4 ± 12.2 | 8.64 ± 0.18 | 4.1 ± 0.06 | 26.7 ± 1.85 | 7.82 ± 0.56 | 6.74 | 192 to 194 |  | CC(CO)(CO)C(=O)Oc1ccc(/C=C/C(=O)/C=C(O)/C=C/c2ccc(OC(=O)C(C)(CO)CO)cc2)cc1 [Compound 23a, ((1E,3Z,6E)-3-Hydroxy-5-oxohepta-1,3,6-triene-1,7-diyl)bis(4,1-phenylene) bis(3-hydroxy-2-(hydroxymethyl)-2-methylpropanoate)] |  |  |  |  |
| 20.1 ± 2.62 | 11 ± 0.44 | 5.22 ± 0.27 | 71.9 ± 7.87 | 11.3 ± 0.72 | 4.78 ± 0.66 | 19.5 ± 1.82 | 5.27 ± 0.57 | 1.33 | 206 to 208 | about 12 times | CC(CO)(CO)C(=O)Oc1ccc(/C=C/C(=O)/C=C(O)/C=C/c2ccc(O)cc2)cc1 [Compound 23b, 4-((1E,4Z,6E)-5-hydroxy-7-(4-hydroxyphenyl)-3-oxohept-1,4,6-trien-1-yl)phenyl 3-hydroxy-2-(hydroxymethyl)-2-methylpropanoate] |  |  |  |  |
| 11.9 ± 1.4 | 6.43 ± 0.26 | 4.74 ± 0.04 | 11.4 ± 1.11 | 5.33 ± 0.29 | 2.79 ± 0.15 | 9.22 ± 2.24 | 5.11 ± 0.96 | 4.61 | 194 to 196 | about 3.5 times | COc1ccc(/C=C/C(=O)CC(=O)/C=C/c2ccc(OC)c(OC(=O)C(C)(CO)CO)c2)cc1OC(=O)C(C)(CO)CO [Compound 24a, ((1E,6E)-3,5-Dioxohepta-1,6-diene-1,7-diyl)bis(2-methoxy-5,1-phenylene) bis(3-hydroxy-2-(hydroxymethyl)-2-methylpropanoate)] |  |  |  |  |
| 8.37 ± 0.81 | 3.75 ± 0.18 | 2.32 ± 0.05 | 7.57 ± 1.02 | 3.84 ± 0.41 | 1.95 ± 0.15 | 7.69 ± 0.82 | 1.99 ± 0.99 | 2.29 | 184 to 186 |  | COc1ccc(/C=C/C(=O)CC(=O)/C=C/c2ccc(OC)c(OC(=O)C(C)(CO)CO)c2)cc1O [Compound 24b, 5-((1E,6E)-7-(3-Hydroxy-4-methoxyphenyl)-3,5-dioxohepta-1,6-dien-1-yl)-2-methoxyphenyl 3-hydroxy-2-(hydroxymethyl)-2-methylpropanoate] |  |  |  |  |
| 9.38 ± 0.01 | 9.53 ± 0.36 | 5.36 ± 0.07 | 8.33 ± 0.39 | 4.22 ± 0.05 | 3.79 ± 0.1 | 18.43 ± 0.15 | 8.85 ± 0.66 | 6.58 ± 0.81 | 153 to 155 |  | CCOc1cc(/C=C/C(=O)/C=C(O)/C=C/c2ccc(OC(=O)C(C)(CO)CO)c(OCC)c2)ccc1OC(=O)C(C)(CO)CO [Compound 26, ((1E,3Z,6E)-3-hydroxy-5-oxohepta-1,3,6-triene-1,7-diyl)bis(2-ethoxy-4,1-phenylene) bis(3-hydroxy-2-(hydroxymethyl)-2-methylpropanoate)] |  |  |  |  |
| 8.18 ± 1.89 | 4.46 ± 0.15 | 3.06 ± 0.29 | 3.79 ± 0.03 | 3.18 ± 0.26 | 2.97 ± 0.13 | 8.04 ± 0.17 | 7.43 ± 1.36 | 5.49 ± 0.52 | 161 to 162 |  | CCOc1cc(/C=C/C(=O)/C=C(O)/C=C/c2ccc(OC(=O)C(CC)(CO)CO)c(OCC)c2)ccc1OC(=O)C(CC)(CO)CO [Compound 27, ((1E,3Z,6E)-3-hydroxy-5-oxohepta-1,3,6-triene-1,7-diyl)bis(2-ethoxy-4,1-phenylene) bis(2,2-bis(hydroxymethyl)butanoate)] |  |  |  |  |
| 7.77 ± 0.88 | 7.85 ± 0.81 | 7.64 ± 0.75 | 10.5 ± 0.64 | 7.56 ± 0.77 | 4.77 ± 0.24 | 4.69 ± 0.73 | 3.12 ± 0.17 | 2.55 | 99 to 101 |  | COc1ccc(/C=C/C(O)=C/C(=O)/C=C/c2ccc(OC(=O)C(C)(CO)CO)c(OC)c2)cc1OC [Compound 33, 4-((1E,4Z,6E)-7-(3,4-dimethoxyphenyl)-5-hydroxy-3-oxohepta-1,4,6-triene-1-yl)-2-methoxyphenyl 3-hydroxy-2-(hydroxymethyl)-2-methylpropanoate] |  |  |  |  |
| 8.7 ± 0.14 | 3.67 ± 0.25 | 2.16 ± 0.12 | 7.71 ± 0.03 |  | 1.74 ± 0.02 | 8.64 ± 0.27 |  | 2 ± 0.02 | 189 to 191 |  | CCC(CC)(C(=O)/C=C/c1ccc(OC(=O)C(C)(CO)CO)c(OC)c1)C(=O)/C=C/c1ccc(OC(=O)C(C)(CO)CO)c(OC)c1 [Compound 35b, ((1E,6E)-4,4-Diethyl-3,5-dioxohepta-1,6-diene-1,7-diyl)bis(2-methoxy-4,1-phenylene) bis(3-hydroxy-2-(hydroxymethyl)-2-methylpropanoate)] |  |  |  |  |
| 4.24 ± 0.18 | 3.54 ± 0.26 | 2.63 ± 0.77 | 2.18 ± 0.22 |  | 0.71 ± 0.01 | 9.02 ± 0.5 |  | 0.71 | 195 to 197 |  | C=CCC(CC=C)(C(=O)/C=C/c1ccc(OC(=O)C(C)(CO)CO)c(OC)c1)C(=O)/C=C/c1ccc(OC(=O)C(C)(CO)CO)c(OC)c1 [Compound 35e, ((1E,6E)-4,4-diallyl-3,5-dioxohepta-1,6-diene-1,7-diyl)bis(2-methoxy-4,1-phenylene) bis(3-hydroxy-2-(hydroxymethyl)-2-methylpropanoate)] |  |  |  |  |
| > 100 | > 100 | 74.6 ± 2.04 | > 100 | 69.1 ± 3.11 | 58.04 ± 0.53 | > 100 | 84.9 ± 1.67 | 57.9 ± 2.73 | 234 to 237 |  | COc1cc(/C=C/C(=O)C(CO)(CO)C(=O)/C=C/c2ccc(OC(=O)C(C)(CO)CO)c(OC)c2)ccc1OC(=O)C(C)(CO)CO [Compound 40, ((1E,6E)-4,4-bis(hydroxymethyl)-3,5-dioxohepta-1,6-diene-1,7-diyl)bis(2-methoxy-4-phenylene) bis(3-hydroxy-2-(hydroxymethyl)-2-methylpropanoate)] |  |  |  |  |
|  |  |  |  |  |  |  |  |  |  |  | COc1cccc2c1C(=O)c1c(O)c3c(c(O)c1C2=O)C[C@@](O)(C(=O)CO)C[C@@H]3O[C@H]1C[C@H](N)[C@H](O)[C@H](C)O1 [Doxorubicin, reference compound] |  |  |  | 60 |

| SMILES | IC50 [1, 7] [µM] | IC50 [1, 8] [µM] | IC50 [1, 9] [µM] | IC50 [2, 10] [µM] | IC50 [2, 11] [µM] | IC50 [2, 12] [µM] | IC50 [3, 13] [µM] | IC50 [3, 14] [µM] | IC50 [3, 15] [µM] | melting point [°C] | times more potent than curcumin (IC50) [3] | body weight and behavior change [4] | times greater inhibitory activity than curcumin ([5]; Doxorubicin-resistant MDA-MB-231) [times] | IC50 ([5]; Homo sapiens, MDA-MB-231, 24 h, Doxorubicin-resistant MDA-MB-231, treated for 24 h) [µM] | reduction of MDA-MB-231 tumor weight compared with control group [6] [%] |
| --- | --- | --- | --- | --- | --- | --- | --- | --- | --- | --- | --- | --- | --- | --- | --- |
| COc1cc(/C=C/C(=O)C(C)(C)C(=O)/C=C/c2ccc(OC(=O)C(C)(CO)CO)c(OC)c2)ccc1OC(=O)C(C)(CO)CO [Compound 35a, ((1E,6)-4,4-Dimethyl-3,5-dioxohept-1,6-diene-1,7-diyl)bis(2-methoxy-4,1-phenylene) bis(3-hydroxy-2-(hydroxymethyl)-2-methylpropanoate)] | 3.49 ± 0.4 |  | 1.76 ± 0.14 | 6.67 ± 0.43 | 3.35 ± 0.09 | 1.65 ± 0.16 | 5.33 ± 0.69 |  | 1.98 |  | 8.2 times | no significant difference | 10 | 5.7 |  |
